These results are taken from patent publication US20250114367A1, “METHOD OF TREATING HAIR LOSS DISORDERS” (Sun Pharmaceutical Industries, Inc., priority 2023, published 2025).

This assay deals with adult subjects with moderate to severe AA. In words: Phase III trial: Clinical Global Impression of Severity (CGI-S). It is filed as in vivo, human. As to the method:
The CGI-S was assessed by the investigator and considered the severity of the subject's alopecia at the time of assessment. The investigator selected 1 of 7 numeric choices representing “Among the most extreme hair loss” to “Normal, no hair loss.” To reduce variability, 1 rater was to perform the CGI-S assessment for the subject. The definitions of the numeric choices is as follows: 1=normal, no hair loss; 2=borderline hair loss; 3=mild hair loss; 4=moderately hair loss; 5=marked hair loss; 6=severe hair loss; 7=among the most extreme hair loss.
A Phase III trial was conducted to assess the efficacy and safety of CTP-543 in adult subjects with moderate to severe AA. Approximately 440 adult male and female subjects 18 to 65 years of age, inclusive, with moderate to severe AA participated in the study. Subjects with definitive diagnosis of AA, and at least 50% hair loss, as defined by a SALT score ≥50, who met all of the inclusion criteria and none of the exclusion criteria participated in the study.
The Screening Period lasted up to 28 days prior to initiation of study drug. […] Randomization was stratified by scalp hair loss into 1 of the following 2 categories: 1) partial scalp hair loss (SALT ≥50 and <95), 2) complete or near complete scalp hair loss (SALT ≥95).
Additional secondary efficacy endpoints included the following: • Relative change in SALT scores from baseline at Weeks 4, 8, 12, 16, 20, and 24. • Percentage of responders (defined as “much improved” or “very much improved”) using the Clinical Global Impression of Improvement (CGI-I) at Weeks 12, 16, 20, and 24. • Percentage of responders (defined as “much improved” or “very much improved”) using the Patient Global Impression of Improvement (PGI-I) at Weeks 12, 16, 20, and 24. • Change from baseline in the Clinical Global Impression of Severity (CGI-S) at Weeks 12, 16, 20, and 24. • Change from baseline in the Patient Global Impression of Severity (PGI-S) at Weeks 12, 16, 20, and 24. • Change from baseline on the Brigham Eyebrow Tool for Alopecia (BETA) score at Weeks 12 and 24. • Change from baseline on the Brigham Eyelash Tool for Alopecia (BELA) score at Weeks 12 and 24. • Percentage of subjects achieving at least a 75% relative reduction in SALT score from baseline at Weeks 12 and 24. • Percentage of subjects achieving at least a 90% relative reduction in SALT score from baseline at Weeks 12 and 24. • Percentage of responders (defined as “satisfied” or “very satisfied”) on the SPRO scale at Weeks 12, 16, and 20. • Change from baseline in the SPRO scale at Weeks 12, 16, 20, and 24. • Percentage of subjects achieving a ≥2-point change from baseline in the SPRO scale at Weeks 12, 16, 20, and 24. • Change from baseline on the individual items of the Hair Quality Patient Reported Outcome (QPRO) scale at Weeks 12, 16, 20, and 24. • Change from baseline in the depression scale of the Hospital Anxiety and Depression Scale (HADS) at Week 24. • Change from baseline in the anxiety scale of the HADS at Week 24. • Percentage of subjects achieving an absolute SALT score of ≤20 at Week 4. • Percentage of subjects achieving an absolute SALT score of ≤10 at Week 24
A decrease in CGI-I score indicates improvement (impression is decreased severity). Similar to other endpoints, decreases favoring the active group over placebo were observed beginning at Week 12 and continuing through Week 24, and the magnitude of the differences increased at each subsequent time point. […] Detailed data for each time point are described below.

On to `[2H]C1([2H])C([C@@H](CC#N)n2cc(-c3ncnc4[nH]ccc34)cn2)C([2H])([2H])C([2H])([2H])C1([2H])[2H]` [CTP-543, (R)-3-(4-(7H-pyrrolo[2,3-d]pyrimidin-4-yl)-1H-pyrazol-1-yl)-3-(cyclopentyl-2,2,3,3,4,4,5,5-d8) propanenitrile], for which the “CGI-S, LS mean change from baseline” value reads like this: (Week 12, 8 mg BID) −1.3; (Week 12, 12 mg BID) −1.4; (Week 16, 12 mg BID) −1.8; (Week 20, 8 mg BID) −1.8; (Week 20, 12 mg BID) −2.1; (Week 24, 8 mg BID) −2.1. Further, the “CGI-S, LS mean change from baseline” value (Week 24, 12 mg BID) was −2.4.
